Source: patent publication US12662469B2 (SIRONAX LTD, priority 2018, dated 2026)

test system: Cell Necrosis; assay: Cell necrosis assay / cell viability assay (necrosis inhibitor activity); type: cell-based; settings: necrosis inhibitor activity; EC data for 14-191 extrapolated; read-out: EC50

With `O=C(N1CCN(c2nccs2)CC1)N1N=CCC1c1ccccc1` (stereo not drawn) [Compound 92, (5-phenyl-4,5-dihydro-1H-pyrazol-1-yl)(4-(thiazol-2-yl)piperazin-1-yl)methanone] as the compound, how does the EC50 read?
The EC50 was 1 to 1000 nM.

`C[C@H]1CN(c2ncc(F)cn2)CCN1C(=O)N1N=CCC1c1ccccc1` (stereo in doubt) [Compound 111B, (S)-(4-(5-fluoropyrimidin-2-yl)-2-methylpiperazin-1-yl)(5-phenyl-4,5-dihydro-1H-pyrazol-1-yl)methanone] was tested. Which EC50 did it give?
Its EC50 is 1000 to 10000 nM.

With `O=C(N1CC/C(=C/c2ccccc2)C1)N1N=CCC1c1ccccc1` (stereo not drawn) [Compound 58, (Z)-(3-benzylidenepyrrolidin-1-yl)(5-phenyl-4,5-dihydro-1H-pyrazol-1-yl)methanone] as the compound, how does the EC50 read?
The EC50 was 1 to 1000 nM.

`O=C(N1CC(Cc2ccc(F)cc2F)C1)N1N=CCC1c1cc(F)cc(F)c1` (stereo not drawn) [Compound 54, (3-(2,4-difluorobenzyl)azetidin-1-yl)(5-(3,5-difluorophenyl)-4,5-dihydro-1H-pyrazol-1-yl)methanone] was tested. Which EC50 did it give?
Its EC50 is 1 to 1000 nM.

For `NC(=O)c1ccc(OC2CN(C(=O)N3N=CCC3c3cc(F)cc(F)c3)C2)cc1F` (stereo not drawn) [Compound 155], which EC50 is on record?
The EC50 was 1 to 1000 nM.

`O=C(N1CC(=Cc2ccc(F)cc2)C1)N1N=CCC1c1cc(F)cc(F)c1` (stereo not drawn) [Compound 57, (5-(3,5-difluorophenyl)-4,5-dihydro-1H-pyrazol-1-yl)(3-(4-fluorobenzylidene)azetidin-1-yl)methanone] was tested. Which EC50 did it give?
Its EC50 is 1 to 1000 nM.

For `O=C(N1CC(Oc2ccc(-c3ncc[nH]3)cc2)C1)N1N=CCC1c1cc(F)cc(F)c1` (stereo not drawn) [Compound 166], which EC50 is on record?
Its EC50 is 1 to 1000 nM.

With `CNC(=O)c1nc(OC2CN(C(=O)N3N=CCC3c3cc(F)cc(F)c3)C2)sc1F` (stereo not drawn) [Compound 170] as the compound, how does the EC50 read?
Its EC50 is 1 to 1000 nM.

For `O=C(N1CC(=Cc2ccc(=O)[nH]c2)C1)N1N=CCC1c1cc(F)cc(F)c1` (stereo not drawn) [Compound 187], which EC50 is on record?
Its EC50 is 1 to 1000 nM.

How did the EC50 turn out when `O=C(N1CC[C@@H](Oc2cccc(F)c2)C1)N1N=CCC1c1ccccc1` (stereo partly drawn) [Compound 32, ((R)-3-(3-fluorophenoxy)pyrrolidin-1-yl)(5-phenyl-4,5-dihydro-1H-pyrazol-1-yl)methanone] was run?
Its EC50 is 1 to 1000 nM.

With `O=C(N1CC(Oc2ccc(F)cc2Cl)C1)N1N=CCC1c1ccccc1` (stereo not drawn) [Compound 67, (3-(2-chloro-4-fluorophenoxy)azetidin-1-yl)(5-phenyl-4,5-dihydro-1H-pyrazol-1-yl)methanone] as the compound, how does the EC50 read?
Its EC50 is 1 to 1000 nM.

How did the EC50 turn out when `O=C(N1CCN(c2ncc(F)cn2)CC1)N1OCC[C@H]1c1ccccc1` [Compound 81, (S)-(4-(5-fluoropyrimidin-2-yl)piperazin-1-yl)(3-phenylisoxazolidin-2-yl)methanone] was run?
The EC50 was 1 to 1000 nM.

With `O=C(N1CCN(c2nccc(O)n2)CC1)N1N=CCC1c1ccccc1` (stereo not drawn) [Compound 103, (4-(4-hydroxypyrimidin-2-yl)piperazin-1-yl)(5-phenyl-4,5-dihydro-1H-pyrazol-1-yl)methanone] as the compound, how does the EC50 read?
The EC50 was 1000 to 10000 nM.

same assay, conditions: necrosis inhibitor activity; compounds outside 14-191; read-out: EC50

`O=C(N1CC(=Cc2ccc(Cl)cc2F)C1)N1N=CC[C@H]1c1cc(F)cc(F)c1` [Compound 313] was tested. Which EC50 did it give?
Its EC50 is 1 to 1000 nM.

With `CC1CCCC(NC(=O)N2N=CCC2c2ccccc2)C1` (stereo not drawn) [Compound 11, N-(3-methylcyclohexyl)-5-phenyl-4,5-dihydro-1H-pyrazole-1-carboxamide] as the compound, how does the EC50 read?
The EC50 was 1 to 1000 nM.

`O=C(N1CC(Oc2ccc3cn[nH]c3c2)C1)N1N=CC[C@H]1c1cc(F)cc(F)c1` [Compound 234, (S)(3-((1H-indazol-6-yl)oxy)azetidin-1-yl)(5-(3,5-difluorophenyl)-4,5-dihydro-1H-pyrazol-1-yl)methanone] was tested. Which EC50 did it give?
Its EC50 is 1 to 1000 nM.

Which EC50 does the source give for `NC(=O)c1nccc(O[C@@H]2CCN(C(=O)N3N=CC[C@H]3c3cc(F)cc(F)c3)C2)n1` [Compound 364, 4-(((R)-1-((S)-5-(3,5-difluorophenyl)-4,5-dihydro-1H-pyrazole-1-carbonyl)pyrrolidin-3-yl)oxy)pyrimidine-2-carboxamide] here?
The EC50 was 1 to 1000 nM.

`O=C(N1Cc2ccccc2C1)N1N=CCC1c1ccccc1` (stereo not drawn) [Compound 13, Isoindolin-2-yl(5-phenyl-4,5-dihydro-1H-pyrazol-1-yl)methanone] was tested. Which EC50 did it give?
Its EC50 is 1 to 1000 nM.
